# Measured values taken from patent US20230190754A1, “Therapeutic combinations for the treatment of Progressive Fibrosing interstitial lung diseases” (Boehringer Ingelheim International GmbH, priority 2021, published 2023).
# System: IPF patients
# Assay: Phase II clinical trial in IPF patients: Treatment Emergent Adverse Events (safety/tolerability), up to 13 weeks
# Procedure: The participants were divided into 2 groups by chance (the “active agent group” and the “placebo group”). […] One 12 mg placebo tablet and one 6 mg placebo tablet (both containing no active ingredient, see Table 1) was administered orally to the patients of the second group twice daily (b.i.d.).
# The “active agent group” and the “placebo group” were further distributed to two different groups regarding background medication: the “AF-group” (“antifibrotic background medication group”) and the “Non-AF-group” (“no antifibrotic background medication group”). […] The combination of both nintedanib and pirfenidone as background medication was not allowed in the “AF-group”.
# The trial was a randomised, double-blind, placebo-controlled parallel group study.
smiles,measurement,setting,value
[O-][S@+]1CCc2nc(N3CCC(c4ncc(Cl)cn4)CC3)nc(NC3(CO)CCC3)c21 [Comp. of form. III],"AE: Metabolism and nutrition disorders, patients n","Non-AF+AF total, 18 mg b.i.d.",4
same,"AE: Musculoskeletal and connective tissue disorders, patients %","Non-AF+AF total, 18 mg b.i.d.",(5.2) %
same,"AE: Musculoskeletal and connective tissue disorders, patients n","Non-AF+AF total, 18 mg b.i.d.",5
same,"AE: Nasopharyngitis, patients %","Non-AF+AF total, 18 mg b.i.d.",(4.1) %
same,"AE: Nasopharyngitis, patients n","Non-AF+AF total, 18 mg b.i.d.",4
same,"AE: Nausea, patients %","Non-AF+AF total, 18 mg b.i.d.",(3.1) %
same,"AE: Nausea, patients n","Non-AF+AF total, 18 mg b.i.d.",3
same,"AE: Nervous system disorders, patients %","Non-AF+AF total, 18 mg b.i.d.",(13.4) %
same,"AE: Nervous system disorders, patients n","Non-AF+AF total, 18 mg b.i.d.",13
same,"AE: Oedema peripheral, patients %","Non-AF+AF total, 18 mg b.i.d.",(2.1) %
same,"AE: Oedema peripheral, patients n","Non-AF+AF total, 18 mg b.i.d.",2
same,"AE: Pyrexia, patients %","Non-AF+AF total, 18 mg b.i.d.",(2.1) %
same,"AE: Pyrexia, patients n","Non-AF+AF total, 18 mg b.i.d.",2
same,"AE: Respiratory, thoracic and mediastinal disorders, patients %","Non-AF+AF total, 18 mg b.i.d.",(14.4) %
same,"AE: Respiratory, thoracic and mediastinal disorders, patients n","Non-AF+AF total, 18 mg b.i.d.",14
same,"AE: Rhinorrhoea, patients %","Non-AF+AF total, 18 mg b.i.d.",(2.1) %
same,"AE: Rhinorrhoea, patients n","Non-AF+AF total, 18 mg b.i.d.",2
same,"AE: Vomiting, patients %","Non-AF+AF total, 18 mg b.i.d.",(3.1) %
same,"AE: Vomiting, patients n","Non-AF+AF total, 18 mg b.i.d.",3
same,"AE: Weight decreased, patients %","Non-AF+AF total, 18 mg b.i.d.",(3.1) %
same,"AE: Weight decreased, patients n","Non-AF+AF total, 18 mg b.i.d.",3
same,"AEs leading to discontinuation of trial drug, patients %","Non-AF+AF total, 18 mg b.i.d.",(13.4) %
same,"AEs leading to discontinuation of trial drug, patients n","Non-AF+AF total, 18 mg b.i.d.",13
same,"Any AE, patients n","Non-AF+AF total, 18 mg b.i.d.",67
same,"Diarrhoea leading to discontinuation of trial treatment, patients %","Non-AF+AF total, 18 mg b.i.d.",(3.1) %
same,"Diarrhoea leading to discontinuation of trial treatment, patients n","Non-AF+AF total, 18 mg b.i.d.",3
same,"Dyspepsia leading to discontinuation of trial treatment, patients %","Non-AF+AF total, 18 mg b.i.d.",(1.0) %
same,"Dyspepsia leading to discontinuation of trial treatment, patients n","Non-AF+AF total, 18 mg b.i.d.",1
same,"Gastrointestinal disorders leading to discontinuation of trial treatment, patients %","Non-AF+AF total, 18 mg b.i.d.",(5.2) %
same,"Gastrointestinal disorders leading to discontinuation of trial treatment, patients n","Non-AF+AF total, 18 mg b.i.d.",5
same,"SAE: COPD, patients %","Non-AF+AF total, 18 mg b.i.d.",(1.0) %
same,"SAE: COPD, patients n","Non-AF+AF total, 18 mg b.i.d.",1
same,"SAE: Cardiac disorders, patients %","Non-AF+AF total, 18 mg b.i.d.",(1.0) %
same,"SAE: Cardiac disorders, patients n","Non-AF+AF total, 18 mg b.i.d.",1
same,"SAE: Cardiac failure congestive, patients %","Non-AF+AF total, 18 mg b.i.d.",(1.0) %
same,"SAE: Cardiac failure congestive, patients n","Non-AF+AF total, 18 mg b.i.d.",1
same,"SAE: Condition aggravated, patients %","Non-AF+AF total, 18 mg b.i.d.",(2.1) %
same,"SAE: Condition aggravated, patients n","Non-AF+AF total, 18 mg b.i.d.",2
same,"SAE: Covid-19 pneumonia, patients %","Non-AF+AF total, 18 mg b.i.d.",(1.0) %
same,"SAE: Covid-19 pneumonia, patients n","Non-AF+AF total, 18 mg b.i.d.",1
same,"SAE: Dyspnoea, patients %","Non-AF+AF total, 18 mg b.i.d.",(1.0) %
same,"SAE: Dyspnoea, patients n","Non-AF+AF total, 18 mg b.i.d.",1
same,"SAE: General disorders and administration side conditions, patients %","Non-AF+AF total, 18 mg b.i.d.",(2.1) %
same,"SAE: General disorders and administration side conditions, patients n","Non-AF+AF total, 18 mg b.i.d.",2
same,"SAE: Infections and Infestations, patients %","Non-AF+AF total, 18 mg b.i.d.",(1.0) %
same,"SAE: Infections and Infestations, patients n","Non-AF+AF total, 18 mg b.i.d.",1
same,"SAE: Lung neoplasm, patients %","Non-AF+AF total, 18 mg b.i.d.",(1.0) %
same,"SAE: Lung neoplasm, patients n","Non-AF+AF total, 18 mg b.i.d.",1
same,"SAE: Neoplasms benign, malignant and unspecified, patients %","Non-AF+AF total, 18 mg b.i.d.",(1.0) %
same,"SAE: Neoplasms benign, malignant and unspecified, patients n","Non-AF+AF total, 18 mg b.i.d.",1
same,"SAE: Nervous system disorders, patients %","Non-AF+AF total, 18 mg b.i.d.",(1.0) %
same,"SAE: Nervous system disorders, patients n","Non-AF+AF total, 18 mg b.i.d.",1
same,"SAE: Peripheral nerve paresis, patients %","Non-AF+AF total, 18 mg b.i.d.",(1.0) %
same,"SAE: Peripheral nerve paresis, patients n","Non-AF+AF total, 18 mg b.i.d.",1
same,"SAE: Respiratory, thoracic and mediastinal disorders, patients %","Non-AF+AF total, 18 mg b.i.d.",(1.0) %
same,"SAE: Respiratory, thoracic and mediastinal disorders, patients n","Non-AF+AF total, 18 mg b.i.d.",1
same,"SAE: Vascular disorders, patients %","Non-AF+AF total, 18 mg b.i.d.",(1.0) %
same,"SAE: Vascular disorders, patients n","Non-AF+AF total, 18 mg b.i.d.",1
same,"SAE: Vasculitis, patients %","Non-AF+AF total, 18 mg b.i.d.",(1.0) %
same,"SAE: Vasculitis, patients n","Non-AF+AF total, 18 mg b.i.d.",1
same,"Serious AEs (patients with ≥1 SAE), patients %","Non-AF+AF total, 18 mg b.i.d.",(6.2) %
same,"Serious AEs (patients with ≥1 SAE), patients n","Non-AF+AF total, 18 mg b.i.d.",6
same,"Severe AEs, patients %","Non-AF+AF total, 18 mg b.i.d.",(4.1) %
same,"Severe AEs, patients n","Non-AF+AF total, 18 mg b.i.d.",4
same,"Vomiting leading to discontinuation of trial treatment, patients %","Non-AF+AF total, 18 mg b.i.d.",(1.0) %
same,"Vomiting leading to discontinuation of trial treatment, patients n","Non-AF+AF total, 18 mg b.i.d.",1
same,"Any AE, patients %","Non-AF+AF total, 18 mg b.i.d., listed as Compound of formula III",(69.1) %
same,"Any AE, patients %","Non-AF+AF total, 18 mg b.i.d., listed as active agent",67%
same,"Abdominal Pain, %","Non-AF, N = 48",(2.1) %
same,"Asthenia, %","Non-AF, N = 48",(6.3) %
same,"Bronchitis, %","Non-AF, N = 48",(2.1) %
same,"Constipation, %","Non-AF, N = 48",(2.1) %
same,"Cough, %","Non-AF, N = 48",(6.3) %
same,"Decreased appetite, %","Non-AF, N = 48",(2.1) %
same,"Diarrhoea, %","Non-AF, N = 48",(16.7) %
same,"Dizziness, %","Non-AF, N = 48",(2.1) %
same,"Dyspepsia, %","Non-AF, N = 48",(6.3) %
same,"Dyspnoea, %","Non-AF, N = 48",(6.3) %
same,"Fatigue, %","Non-AF, N = 48",(4.2) %
same,"Flatulence, %","Non-AF, N = 48",(6.3) %
same,"Gastrointestinal disorders, %","Non-AF, N = 48",(27.1) %
same,"General Disorders and Administration Side conditions, %","Non-AF, N = 48",(18.8) %
same,"Headache, %","Non-AF, N = 48",(6.3) %
same,"Infections and infestations, %","Non-AF, N = 48",(14.6) %
same,"Investigations, %","Non-AF, N = 48",(10.4) %
same,"Metabolism and nutrition disorders, %","Non-AF, N = 48",(2.1) %
same,"Musculoskeletal and connective tissue disorders, %","Non-AF, N = 48",(4.2) %
same,"Nausea, %","Non-AF, N = 48",(4.2) %
same,"Nervous system disorders, %","Non-AF, N = 48",(8.3) %
same,"Oedema peripheral, %","Non-AF, N = 48",(2.1) %
same,"Pyrexia, %","Non-AF, N = 48",(2.1) %
same,"Respiratory, thoracic and mediastinal disorders, %","Non-AF, N = 48",(16.7) %
same,"Rhinorrhoea, %","Non-AF, N = 48",(2.1) %
same,"Vomiting, %","Non-AF, N = 48",(2.1) %
same,"Weight decreased, %","Non-AF, N = 48",(4.2) %
same,"AE resulting in death, patients %","Non-AF-group, 18 mg b.i.d.",(2.1) %
same,"AE resulting in death, patients n","Non-AF-group, 18 mg b.i.d.",1
same,"AE: Abdominal pain, patients %","Non-AF-group, 18 mg b.i.d.",(2.1) %
same,"AE: Abdominal pain, patients n","Non-AF-group, 18 mg b.i.d.",1
same,"AE: Asthenia, patients %","Non-AF-group, 18 mg b.i.d.",(6.3) %
same,"AE: Asthenia, patients n","Non-AF-group, 18 mg b.i.d.",3
same,"AE: Bronchitis, patients %","Non-AF-group, 18 mg b.i.d.",(2.1) %
same,"AE: Bronchitis, patients n","Non-AF-group, 18 mg b.i.d.",1
same,"AE: Constipation, patients %","Non-AF-group, 18 mg b.i.d.",(2.1) %
same,"AE: Constipation, patients n","Non-AF-group, 18 mg b.i.d.",1
same,"AE: Cough, patients %","Non-AF-group, 18 mg b.i.d.",(6.3) %
same,"AE: Cough, patients n","Non-AF-group, 18 mg b.i.d.",3
